This note sets out measurements from patent US6960594B2, “Thiophene and furan 2,5-dicarboxamides useful in the treatment of cancer” (Shire BioChem Inc., priority 1998, dated 2005).

For assay [1], the system named is Human non small-cell lung cancer cell line H460. The experiment in a line: Inhibition of metastasis in angiomouse/metamouse human lung cancer model of H460. It counts as in vivo, athymic BALB/c nude mice. The note with it: Group B, 10 mg/kg SC 3 times/week. The method, then:
Male and female athymic BALB/c nude mice between 4 and 5 weeks of age were used. The animals were bred and maintained in an HEPA-filtered environment with cages, food and bedding sterilized by autoclaving. The breeding pairs were obtained from the Charles River Laboratories (Wilmington, Mass.). The animal diets were obtained from Harlan Teklab (Madison, Wis.). Ampicillin (Sigma, St Louis, Mo.) 5.0% (v/v) was added to the autoclaved drinking water.
Compound VII was tested and AGM-1470 (chloroacetyl-(3R,4S,5S,6R)-5-methoxy-4-[(2R,3R)-2-methyl-3-(3-methyl-2-butenyl)oxiranyl]-1-oxaspiro[2.5]oct-6-yl ester carbamic acid) was used as a positive control. [drawing 51] The compounds were dissolved using PEG400 with heating and sonicatin. The solutions were then diluted with saline to obtain the desired concentrations (30%/70%) and stored at −20° C.
Human non small-cell lung cancer cell line H460 with expression of green fluorescent protein was obtained from the National Cancer Institute. The cells were transfected with vectors carrying the green fluorescent protein (GFP) gene. The cell line was propagated by subcutaneous implantation in nude mice.
Test animals were transplanted by surgical orthotopic implantation (SOI) using fragments harvested from subcutaneaous tumor stock animals. The animals were anesthetized with isoflurane and the surgical area was sterilized using iodine solution and alcohol. A left thoracotomy was made along the 4th intercostal space using a pair of scissors. Two pieces of H460 tumor tissue of one cubic millimiter each were sutured to the left lung using an 8-0 nylon surgical suture. The thorax was closed using a sterile 6-0 silk suture. A sterile 3-cc syringe with a 25-gauge needle was used to remove the air and inflate the lung. All surgical and animal manipulations and procedures were conducted under HEPA-filtered laminar flow hoods.
Extra numbers of mice were transplanted to compensate for postsurgical losses. The orthotopically transplanted animals used were selected to establish groups of similar mean body weight. Groups for each of the cohort conditions wre randomly chosen. The cohort was grouped as follows. A total of 10 mice were used for each dosage regimen. Administration of test compounds and vehicle by subcutaneous injection was begun three days after the orthotopic implantation.
Two animals for each treatment group were sacrificed at day-14 after orthotopic implantation of H460. The remaining animals for each group were sacrificed at day-28 after implantation. The sacrificed animals were evaluated for primary and secondary tumors. Gross examination for distant metastasis was conducted at necropsy. Tissue samples of the primary tumor and those from relevant organs such as the lung, the liver and the lymph nodes wre processed through standards procedures of hematoxylin and eosin staining for subsequent microscopic examination.
The mediastinal lymph nodes, the liver and the lung in each animal were collected. The sampled tissues were sectioned and stained, then microscopically examined. The fisher-exact test was performed to compare distant metastasis to these organs in the treated and the controls. […]

The target in assay [2] is T1, placental αvβ3 (Homo sapiens, UniProt P05106+P06756).
T1 construct: placental αvβ3 at 0.5 ug/mL; from tissue; host or cells: placenta
T1 sequence (P06756 31-889 limits assumed): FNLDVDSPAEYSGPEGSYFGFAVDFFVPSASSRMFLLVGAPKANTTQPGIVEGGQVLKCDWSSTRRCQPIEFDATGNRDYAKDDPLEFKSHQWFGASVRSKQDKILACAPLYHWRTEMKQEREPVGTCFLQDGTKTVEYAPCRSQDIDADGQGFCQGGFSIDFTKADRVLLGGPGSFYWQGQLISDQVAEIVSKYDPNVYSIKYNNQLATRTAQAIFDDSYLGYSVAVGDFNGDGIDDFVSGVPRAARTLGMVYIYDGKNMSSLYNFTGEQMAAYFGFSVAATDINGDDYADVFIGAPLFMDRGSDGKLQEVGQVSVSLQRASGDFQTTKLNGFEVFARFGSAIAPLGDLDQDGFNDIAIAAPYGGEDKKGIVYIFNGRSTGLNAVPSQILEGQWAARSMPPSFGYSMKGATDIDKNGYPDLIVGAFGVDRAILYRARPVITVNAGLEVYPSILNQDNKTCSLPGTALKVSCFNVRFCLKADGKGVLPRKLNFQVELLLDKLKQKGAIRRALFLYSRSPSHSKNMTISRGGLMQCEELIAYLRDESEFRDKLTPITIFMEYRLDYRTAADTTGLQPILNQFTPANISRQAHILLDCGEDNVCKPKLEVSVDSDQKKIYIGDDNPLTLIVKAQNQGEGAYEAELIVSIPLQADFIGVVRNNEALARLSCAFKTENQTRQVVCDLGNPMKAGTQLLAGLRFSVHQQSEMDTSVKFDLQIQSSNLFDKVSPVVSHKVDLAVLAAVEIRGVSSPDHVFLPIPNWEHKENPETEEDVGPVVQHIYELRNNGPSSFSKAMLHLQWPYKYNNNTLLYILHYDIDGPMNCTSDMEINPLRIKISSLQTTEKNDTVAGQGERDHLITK
T1 sequence (P06756 891-1048 partner limits assumed): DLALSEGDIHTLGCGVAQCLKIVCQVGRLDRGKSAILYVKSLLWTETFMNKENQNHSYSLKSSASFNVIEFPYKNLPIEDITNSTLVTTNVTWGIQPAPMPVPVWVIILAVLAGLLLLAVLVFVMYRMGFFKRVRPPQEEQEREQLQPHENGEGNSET
T1 sequence (P05106 27-788): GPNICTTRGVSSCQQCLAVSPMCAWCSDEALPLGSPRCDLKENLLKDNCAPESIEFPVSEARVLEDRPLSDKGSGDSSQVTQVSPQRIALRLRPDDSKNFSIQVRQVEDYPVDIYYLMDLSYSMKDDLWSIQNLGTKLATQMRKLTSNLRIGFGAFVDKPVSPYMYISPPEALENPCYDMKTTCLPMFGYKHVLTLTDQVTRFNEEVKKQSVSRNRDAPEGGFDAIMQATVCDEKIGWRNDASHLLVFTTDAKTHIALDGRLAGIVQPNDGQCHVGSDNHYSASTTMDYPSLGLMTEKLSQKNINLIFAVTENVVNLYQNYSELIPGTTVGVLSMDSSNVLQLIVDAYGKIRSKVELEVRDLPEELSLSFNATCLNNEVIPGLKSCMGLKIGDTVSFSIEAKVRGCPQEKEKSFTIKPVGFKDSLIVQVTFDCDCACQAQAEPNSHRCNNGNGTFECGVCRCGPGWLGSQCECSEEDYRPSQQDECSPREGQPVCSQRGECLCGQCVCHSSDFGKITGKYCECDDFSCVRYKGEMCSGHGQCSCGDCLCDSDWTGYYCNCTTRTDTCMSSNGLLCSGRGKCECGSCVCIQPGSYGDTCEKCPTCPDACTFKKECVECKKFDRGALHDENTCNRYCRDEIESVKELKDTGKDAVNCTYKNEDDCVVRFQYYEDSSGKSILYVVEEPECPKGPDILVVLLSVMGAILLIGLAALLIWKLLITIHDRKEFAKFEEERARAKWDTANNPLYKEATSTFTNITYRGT
Nature of the assay: Fibrinogen binding to immobilized αvβ3. The note with it: biotinylated-fibrinogen (10 nM) binding to immobilized αvβ3; read-out: IC50 αvβ3. As for the experimental part:
(§1) The wells of plastic microtiter plates were coated overnight at 4° C. with purified active αIIbβ3 (Calbiochem) or placental αvβ3 at 0.5 ug/mL (100 uL/well) in a buffer containing 150 mM NaCl, 20 mM Tris, pH 7.4, 1 mM MgCl2, 0.2 mM MnCl2, and including 1 mM CaCl2 for αIIbβ3. Blocking of nonspecific sites was achieved by incubating the wells with 35 mg/mL bovine serum albumin (BSA) for at least 2 hours at 37° C. Biotinylated-fibrinogen (10 nM) was added in 0.2 mL binding buffer (100 mM NaCl, 50 mM Tris, pH 7.4, 1 mM MgCl2, 0.2 mM MnCl2 and 1 mg/mL BSA including 1 mM CaCl2 for αIIbβ3) to the wells in triplicate in the absence or presence of increasing concentrations of compounds of interest (0.001-100 uM) and further incubated for 2 hours at 37° C. Nonbound fibrinogen was removed by five washes with binding buffer. Avidin conjugated to alkaline phosphatase (Sigma), diluted in binding buffer, was added and incubated for two hours at 37° C. The plates were washed five times with binding buffer, and after addition of the substrate PNPP (Pierce), the enzyme activity was measured by the absorbance at 405 nm.

For assay [3], the target named is T2, GP IIb-IIIa (αIIbβ3) (Homo sapiens, UniProt P05106+P08514).
T2 construct: purchased Calbiochem
The experiment in a line: Fibrinogen binding to immobilized GP IIb-IIIa (αIIbβ3). To be noted: biotinylated-fibrinogen (10 nM) binding to immobilized αIIbβ3; read-out: IC50 αIIbβ3. As for the experimental part:
as §1

The test system of assay [4] is HMVEC. The experiment in a line: Cell proliferation and cytotoxicity MTT assay, HMVEC. The note with it: HMVEC, 72 hours culture. It counts as cell-based. The method, then:
(§2) The wells of microtiter plates were seeded with 2000 cells/well T24, 2500 cells/well HT29 or 5000 cells/well HMVEC (Cell Systems) in 100 uL, followed by an overnight culture for cell adhesion. The next day, the media is supplemented with 100 uL of 10-fold dilution of compound of interest starting at 10 uM. Following culture for 72 hours, 3-(4,5-dimethyl-2-thiazolyl)-2,5-diphenyltetrazolium bromide (MTT; Sigma) at 2 mg/mL was added to each well (50 uL/well) and further incubated for 4 hours at 37° C. The medium was flicked out and 200 uL of a 1:1 solution of ethanol:acetone followed by 25 uL of glycine buffer (0.1 M glycine, 0.1M NaCl, pH 10.5) is added and the color measured by the absorbance at 570 nm.

The subject of assay [5] is HT29. The experiment in a line: Cell proliferation and cytotoxicity MTT assay, HT29. The class given is cell-based. The note with it: Homo sapiens, HT-29, 72 hours culture. As for the experimental part:
as §2
For orientation: Tetrazolium dyes change colour on reduction, which living cells bring about.

Assay [6] has as its system Chick chorioallantoic membrane (CAM) capillary formation driven by VPF/VEGF165. The experiment in a line: Chick chorioallantoic membrane (CAM) mesh assay. The note with it: significant if >25%. It counts as in vivo, chicken. As for the experimental part: Fertilized white leghorn chicken eggs (SPAFAS Inc., Norwich, Conn.) were received at day 0 and incubated for 3 days at 37 C with constant humidity. On day 3, eggs were rinsed with 70% ethanol and opened into 100 mm^2 tissue culture coated Petri dishes under aseptic conditions. The embryos were then returned to a humidified 38 C incubator for 7-9 additional days.
Vitrogen (Collagen Biomaterials, Palo Alto, Calif.) at a final concentration of 0.73 mg/mL and Matrigel (Becton Dickinson, Bedford, Mass.) at a final concentration of 10 mg/mL was directly pipetted onto Nylon meshes with 250 μm^2 openings which were cut into 4 mm×4 mm squares and autoclaved. Polymerization of meshes were under aseptic conditions, on bacteriological Petri dishes. The polymerization conditions for each substrate were identical; after mixing with or without 250 μg of VPF/VEGF165 (Peprotech, Rocky Hill, N.J.) and/or compounds of interest, 40 μL were pipetted onto each mesh in a bacteriological Petri dish. The Petri dish was placed in a humidified 37 C incubator with 5% CO2 for 30 minutes to allow polymerization followed by an incubation at 4° C. for 2 hours.
In a tissue culture enclosure, meshes were placed onto the periphery of the CAM of a day 12-14 embryo, excluding areas containing major vessels. The embryos were then returned to the humidified 38° C. incubator with 3% CO2 for 24 to 48 additional hours.
Embryos were removed from the incubator and meshes were viewed under a dissecting microscope for gross evaluation. Injection of 400 μL FITC dextran, MW 2,000,000 (Sigma, St. Louis, Mo.) through glass microcapillary tubes by infusion into the umbilical vein was performed at a rate of 200 μl per minute. The FITC dextran was allowed to circulate for 5 minutes and 3.7% formaldehyde in PBS was applied directly on each mesh. The embryos were then incubated at 40° C. for 5 minutes and the meshes were dissected off the CAM and fixed in 3.7% formaldehyde for 10 minutes to overnight.
After fixation, meshes were mounted on slides with 90% glycerol in PBS and visualized on an inverted fluorescence microscope. A Nikon Diaphot with a Sony DXC-151A camera attached to the side port was used for capture of images and analysis was with the NIH Image 1.61 software program. For each mesh, 5 random staggered images (approximately 600 μm each) were captured. The areas of high intensity were highlighted and measured. Results are expressed as ability to suppress capillary formation after subtraction from negative control. Values were calculated as a inhibition, considering 100% the capillary density achieved by VPF in the presence of vitrogen alone minus the bakground levels in the absence of VPF. Negative values indicated angiogenic stimulation above the VPF positive control.

For assay [7], the target named is T3, αvβ3 (Homo sapiens, UniProt P05106+P06756).
T3 construct: expressed in transfected cells; host or cells: K562
T3 sequence (P06756 31-889 limits assumed): as the sequence (P06756 31-889 limits assumed) above
T3 sequence (P06756 891-1048 partner limits assumed): as the sequence (P06756 891-1048 partner limits assumed) above
T3 sequence (P05106 27-788): as the sequence (P05106 27-788) above
Nature of the assay: Cell adhesion assay, K562-tr on osteopontin. It counts as cell-based. To be noted: K562 transfected with αvβ3, adhesion to osteopontin, 1 hour; read-out: IC50 K562-tr Osteopontin (αvβ3). As for the experimental part: (§3) The wells of 96-well plates (Immunolon) were coated, by incubation overnight at 4° C., with 5 ug/mL vitronectin, 2 ug/mL osteopontin, or fibronectin or 10 mg/mL BSA in PBS. The protein solution was flicked out and the wells were blocked with 10 mg/mL BSA (0.1 mL) for 1-2 hours at 37° C. […] Cells were lifted with trypsin-EDTA and washed two times with Hank's balanced salt solution minus cations (Sigma) supplemented with 1 mM MgCl2 Cells (75,000 cells/well) were added to coated plates in triplicate and allowed to attach at 37° C. for 1 hour in the presence or absence of specific antibodies (5 ug/mL) or 10-fold dilutions of compounds of interest starting at 10 uM. Nonadherent cells were removed by gentle washing twice with PBS. The adherent cells were solubilized with 1% triton x-100 and detected using a fluorescence plate reader (DYNEX Technologies). The number of attached cells was calculated based upon standard curves for each cell line used in the experiment.

The target of assay [8] is T4, αvβ5 (Homo sapiens, UniProt P06756+P18084).
T4 construct: Cells HT29, K562, or K562 transfected with αvβ3; endogenous in cells; host or cells: HT29
T4 sequence (P06756 31-889 limits assumed): as the sequence (P06756 31-889 limits assumed) above
T4 sequence (P06756 891-1048 partner limits assumed): as the sequence (P06756 891-1048 partner limits assumed) above
T4 sequence (P18084 24-799): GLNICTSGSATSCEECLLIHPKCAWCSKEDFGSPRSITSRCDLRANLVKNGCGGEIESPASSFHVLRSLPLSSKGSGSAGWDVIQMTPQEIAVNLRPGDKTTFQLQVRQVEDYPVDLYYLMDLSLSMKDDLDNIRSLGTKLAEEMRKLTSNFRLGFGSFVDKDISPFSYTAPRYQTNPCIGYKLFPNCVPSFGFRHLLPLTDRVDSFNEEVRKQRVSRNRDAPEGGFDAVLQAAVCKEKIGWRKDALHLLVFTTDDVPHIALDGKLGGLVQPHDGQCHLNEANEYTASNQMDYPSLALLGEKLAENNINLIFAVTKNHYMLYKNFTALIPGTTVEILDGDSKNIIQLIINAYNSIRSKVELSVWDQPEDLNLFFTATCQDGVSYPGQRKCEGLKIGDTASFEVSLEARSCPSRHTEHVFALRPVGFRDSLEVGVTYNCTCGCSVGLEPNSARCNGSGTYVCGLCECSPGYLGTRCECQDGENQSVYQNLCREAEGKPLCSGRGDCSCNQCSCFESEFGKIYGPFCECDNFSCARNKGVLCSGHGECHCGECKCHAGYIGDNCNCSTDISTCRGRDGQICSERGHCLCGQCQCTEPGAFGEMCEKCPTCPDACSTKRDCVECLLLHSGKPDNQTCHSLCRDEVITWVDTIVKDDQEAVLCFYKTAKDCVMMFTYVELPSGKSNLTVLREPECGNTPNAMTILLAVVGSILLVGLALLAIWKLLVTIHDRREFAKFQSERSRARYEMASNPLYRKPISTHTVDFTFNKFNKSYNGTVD
The experiment in a line: Cell adhesion assay, HT29 on vitronectin. It counts as cell-based. The note with it: HT29 cells, adhesion to vitronectin, 1 hour; read-out: IC50 HT29 Vitronectin (αvβ5). The method, then:
as §3

Assay [9] concerns the target T5, α5β1 (Homo sapiens, UniProt P05556+P08648).
T5 construct: Cells HT29, K562, or K562 transfected with αvβ3; endogenous in cells; host or cells: K562
Nature of the assay: Cell adhesion assay, K562 on fibronectin. The class given is cell-based. The note with it: K562 cells, adhesion to fibronectin, 1 hour. As for the experimental part:
The wells of 96-well plates (Immunolon) were coated, by incubation overnight at 4° C., with 5 ug/mL vitronectin, 2 ug/mL osteopontin, or fibronectin or 10 mg/mL BSA in PBS. The protein solution was flicked out and the wells were blocked with 10 mg/mL BSA (0.1 mL) for 1-2 hours at 37° C. Cells HT29, K562, or K562 transfected with αvβ3 (Blystone et al., 1994) were loaded with a fluorescent marker, 5-chloromethylfluorescein diacetate (Molecular Probes, Eugene, Oreg.) for 1 hour at 37° C., then incubated in fresh medium without the fluorescent marker for 1 hour. Cells were lifted with trypsin-EDTA and washed two times with Hank's balanced salt solution minus cations (Sigma) supplemented with 1 mM MgCl2 Cells (75,000 cells/well) were added to coated plates in triplicate and allowed to attach at 37° C. for 1 hour in the presence or absence of specific antibodies (5 ug/mL) or 10-fold dilutions of compounds of interest starting at 10 uM. Nonadherent cells were removed by gentle washing twice with PBS. The adherent cells were solubilized with 1% triton x-100 and detected using a fluorescence plate reader (DYNEX Technologies). The number of attached cells was calculated based upon standard curves for each cell line used in the experiment. Non-specific cell attachment (attachment to wells coated with BSA) was always less than 5%.

Structures can show the parent of a compound that is named as a salt. Where only a bound is given, the exact number is not on record here.

T5 sequence (P08648 42-894 limits assumed): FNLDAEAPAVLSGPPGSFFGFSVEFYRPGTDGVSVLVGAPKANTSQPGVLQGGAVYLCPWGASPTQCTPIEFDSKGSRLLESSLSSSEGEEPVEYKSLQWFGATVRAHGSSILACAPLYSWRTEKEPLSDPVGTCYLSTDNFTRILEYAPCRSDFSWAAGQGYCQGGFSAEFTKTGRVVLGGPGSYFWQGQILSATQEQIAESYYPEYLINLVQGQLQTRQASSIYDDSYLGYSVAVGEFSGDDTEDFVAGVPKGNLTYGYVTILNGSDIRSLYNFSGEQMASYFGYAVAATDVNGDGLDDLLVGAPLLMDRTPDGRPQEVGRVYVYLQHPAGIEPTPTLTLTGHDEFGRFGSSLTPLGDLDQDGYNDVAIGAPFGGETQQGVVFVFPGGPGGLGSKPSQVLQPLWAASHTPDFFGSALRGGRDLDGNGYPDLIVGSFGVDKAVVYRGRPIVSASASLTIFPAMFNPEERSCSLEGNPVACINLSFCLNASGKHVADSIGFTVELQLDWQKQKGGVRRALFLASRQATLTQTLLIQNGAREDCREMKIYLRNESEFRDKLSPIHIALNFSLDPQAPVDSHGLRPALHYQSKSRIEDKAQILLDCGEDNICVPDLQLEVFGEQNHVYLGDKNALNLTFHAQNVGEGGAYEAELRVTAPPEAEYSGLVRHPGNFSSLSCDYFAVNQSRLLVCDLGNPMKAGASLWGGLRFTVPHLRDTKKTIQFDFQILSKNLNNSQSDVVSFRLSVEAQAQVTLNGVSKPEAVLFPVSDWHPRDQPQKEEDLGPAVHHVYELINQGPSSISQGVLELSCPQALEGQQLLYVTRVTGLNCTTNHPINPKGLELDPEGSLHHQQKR
T5 sequence (P08648 895-1049 partner limits assumed): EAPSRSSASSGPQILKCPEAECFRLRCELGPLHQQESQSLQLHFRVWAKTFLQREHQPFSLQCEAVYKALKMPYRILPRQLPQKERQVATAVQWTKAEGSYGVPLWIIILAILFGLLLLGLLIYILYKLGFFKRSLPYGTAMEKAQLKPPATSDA
T5 sequence (P05556 21-798): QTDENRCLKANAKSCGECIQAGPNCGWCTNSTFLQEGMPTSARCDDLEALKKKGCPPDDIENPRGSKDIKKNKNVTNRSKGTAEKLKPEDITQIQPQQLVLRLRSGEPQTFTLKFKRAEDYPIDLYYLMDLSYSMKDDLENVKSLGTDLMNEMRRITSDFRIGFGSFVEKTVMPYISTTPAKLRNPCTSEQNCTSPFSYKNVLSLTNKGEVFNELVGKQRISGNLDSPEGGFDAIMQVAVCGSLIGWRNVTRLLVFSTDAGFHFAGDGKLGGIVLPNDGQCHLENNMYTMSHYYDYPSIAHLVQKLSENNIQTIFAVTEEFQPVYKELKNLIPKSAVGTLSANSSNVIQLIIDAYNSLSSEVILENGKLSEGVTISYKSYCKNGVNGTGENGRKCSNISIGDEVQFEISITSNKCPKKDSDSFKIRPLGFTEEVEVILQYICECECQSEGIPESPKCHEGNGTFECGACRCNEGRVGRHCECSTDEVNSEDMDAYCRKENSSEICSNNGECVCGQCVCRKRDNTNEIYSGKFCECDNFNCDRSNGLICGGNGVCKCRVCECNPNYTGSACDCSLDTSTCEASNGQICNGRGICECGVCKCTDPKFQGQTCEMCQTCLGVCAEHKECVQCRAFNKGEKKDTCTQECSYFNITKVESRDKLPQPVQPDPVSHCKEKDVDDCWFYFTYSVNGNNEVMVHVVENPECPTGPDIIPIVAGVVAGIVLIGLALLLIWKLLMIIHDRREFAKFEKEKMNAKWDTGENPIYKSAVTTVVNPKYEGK

For `CO[C@@H]1[C@H](OC(=O)NC(=O)CCl)CC[C@]2(CO2)[C@H]1[C@@]1(C)O[C@@H]1CC=C(C)C` [AGM-1470, chloroacetyl-(3R,4S,5S,6R)-5-methoxy-4-[(2R,3R)-2-methyl-3-(3-methyl-2-butenyl)oxiranyl]-1-oxaspiro[2.5]oct-6-yl ester carbamic acid, reference compound], in assay [1], the “Incidence of lung metastasis” value is 3/10 and the “Incidence of lymph node metastasis” value is 1/10.

As to `N=C(N)NCCCNC(=O)c1ccc(C(=O)NC(CC(=O)O)c2ccccc2)s1` (stereo not drawn) [Compound VIII, 3-{[5-(3-guanidino-propylcarbamoyl)-thiophene-2-carbonyl]-amino}-3-phenyl-propionic acid], the 50% inhibitory concentration (IC50) – broadly, the concentration that gives 50% inhibition – is 3.2 µM in assay [2], 5.9 µM in [3], greater than 10 µM in [4] and greater than 10 µM in [5]. The “% of inhibition at 33 μg/mesh in the presence of VEGF” value (from here on “% of inhibition at 33 μg/mesh”) in assay [6] was 36%.

In the case of `NCCNC(=O)c1ccc(C(=O)NC[C@H](NS(=O)(=O)c2ccccc2)C(=O)O)s1` [Compound X, (2S)2-Benzenesulfonylamino-3-[5-(2-amino-ethylcarbamoyl)-thiophen-2-carbonyl]-amino propionic acid trifluoroacetic acid salt], the IC50 in assay [7], in assay [8] and in assay [9] was greater than 10 µM in each case.

With `N=C(N)NNC(=O)c1ccc(C(=O)NC[C@H](NS(=O)(=O)c2ccccc2)C(=O)O)s1.O=C(O)C(F)(F)F` [Compound XIX, 2S-Benzenesulfonylamino-3-[(5-guanidino-aminocarbonyl-thiophene-2-carbonyl)-amino]-3-propionic acid trifluoroacetate], the IC50 is 1.3 µM in assay [7] and greater than 10 µM in assay [9]. Also, the “% of inhibition at 33 μg/mesh” value in assay [6] is 8%.

`NNC(=O)c1ccc(C(=O)NC[C@H](NS(=O)(=O)c2ccccc2)C(=O)O)s1.O=C(O)C(F)(F)F` [Compound XVIII, 2S-Benzenesulfonylamino-3-[(5-hydrazinocarbonyl-thiophene-2-carbonyl)-amino]-3-propionic acid trifluoroacetate]: the “% of inhibition at 33 μg/mesh” value in assay [6] is reported as 20%.

For the compound `Cl.N=C(N)NCCNC(=O)c1ccc(C(=O)NC[C@H](NS(=O)(=O)c2ccccc2)C(=O)O)o1` [Compound XXI], the “% of inhibition at 33 μg/mesh” value in assay [6] was determined as 32%.
